Several values for one entry are separate records, joined by “and”; a condition that tells them apart may be missing. Equal entries are not always repeated. Entries after “also recorded” stand apart in the source; their conditions may differ. Where two headings read alike, the source gives them in different places. Marks after values point to notes of the source that are not given here.
Experiments:
[1] = Pharmacokinetics of SR13668 in monkeys after i.v. and oral gavage dosing; format: in vivo, cynomolgus monkeys (macaca fasicularis); conditions: for Fabs F/(1-ER): blood; for Vd/F: read-out: VZ/F
From the text: Four non-naïve male beagle dogs (approximately 3 years of age; Ridglan Farms Inc. Mt. Horeb, Wis.) and four non-naïve male cynomolgus monkeys [cynos (macaca fasicularis); approximately 7 to 8 years of age; Charles River Laboratories, Inc., Houston, Tex.] were used in this study. Prior to experimental initiation for the present study, the attending veterinarian certified that the animals were healthy and free from disease and parasites.
For both species, each animal was part of each experimental group, with a 7-day interval between treatments to allow for washout of the dosing formulation and its effects. Dosing formulations of SR13668 were administered by oral gavage (intragastric) or intravenous (i.v.) injection as a single dose or once daily for seven consecutive days. Oral to doses were administered at a dosing volume of 5 mL/kg of body weight, while intravenous doses were administered at a dosing volume of 0.5 mL/kg of body weight. Dogs were dosed with 93.6 mg/m^2 SR13668 intravenously in DMSO:PEG300 15:85 (v/v) or orally in Solutol® vehicle (two groups, fed and after an overnight fast). Monkeys were dosed with 84.2 mg/m^2 SR13668 intravenously in DMSO:PEG300 15:85 (v/v) or orally (336.7 mg/m^2 SR13668 for the oral high dose group) in PEG400:Labrasol® 1:1 (v/v) or Solutol® vehicles. Vehicle control groups were used to assess the tolerability of the vehicle and for clinical pathology evaluations.
Blood samples were collected from each animal at 10 time points (0, 0.25, 0.5, 1, 2, 4, 6, 8, 12 and 24 hours post-dose) during the first and last 24-hour segment of each dosing regimen. For single intravenous dose experiments, samples were collected during the 24-hour post-dose period only. Samples were transferred to Vacutainer tubes containing ethylenediaminetetraacetic acid (EDTA; Fisher Scientific, Pittsburgh, Pa.). The tubes were inverted several times to mix and then placed on ice until storage or centrifugation for plasma preparation. After centrifugation, the plasma was transferred into storage tubes (0.5 mL), which were placed on dry ice and then stored frozen (approximately −70° C.).
Levels of SR13668 in plasma and blood were measured using a tandem mass to spectrometer (API 3000; Applied Biosystems/MDS Sciex, Foster City, Calif.) equipped with a high performance liquid chromatograph (Agilent 1200; Agilent Technologies, Wilmington, Del.). For SR13668 determination, a 100 μL blood or plasma aliquot was mixed with 1 mL of acetonitrile (ACN; Sigma-Aldrich, St. Louis, Mo.). After vortex-mixing for one minute, the sample was centrifuged at 4° C. and 7000 RPM for 10 minutes to remove precipitated proteins, and the supernatant was transferred to a clean tube and dried under nitrogen flow at room temperature (approximately 25° C.). After the evaporation was completed, the residue was reconstituted in 500 μL of ACN/water (v/v 70:30), and vortex-mixed and centrifuged again. An aliquot of the resulting supernatant was transferred to an autosampler tube for instrumental analysis.
A freshly prepared SR13668 standard curve was analyzed along with samples on each day of analysis. The chromatographic column was a Luna 3μ C18(2) 110 Å 30×2.0 mm (Phenomenex, Torrance, Calif.). The column temperature was maintained at 25° C., and a flow rate of 0.30 mL/min was used. The mobile phase consisted of MPA: formic acid in water (0.05%, v/v) and MPB: formic acid in ACN (0.05%, v/v). The mobile phase gradient was as follows: after injection, initial conditions with MPA at 40% were held for 0.01 min, decreased to 5% and held constant for 3 min, returning to initial conditions for another 3 min of re-equilibration time. Retention time of SR13668 was approximately 2.4 min. Total run time was 6 min. A turbo ion spray interface was used as the ion source operating in negative ion mode. Acquisition was performed in multiple reaction monitoring mode using ions 429.15 (Q1) and 414.12 (Q3) Dalton. […]

[2] = Green C., unpublished results; cited from earlier work
[3] = male, cynomolgus monkey, plasma, iv, 7.02 mg/kg, plasma, 84.2 mg/m^2 (7.02 mg/kg) i.v. single dose, DMSO:PEG300 15:85 v/v, fed
[4] = male, cynomolgus monkey, plasma, po, 7.02 mg/kg, 84.2 mg/m^2 (7.02 mg/kg) oral gavage, Solutol, seventh daily dose, fed
[5] = male, cynomolgus monkey, plasma, po, 7.02 mg/kg, plasma, 84.2 mg/m^2 (7.02 mg/kg) oral gavage, PEG400:Labrasol 1:1 v/v, seventh daily dose, fed
[6] = male, cynomolgus monkey, plasma, po, 28.06 mg/kg, plasma, 336.7 mg/m^2 (28.06 mg/kg) oral gavage, PEG400:Labrasol 1:1 v/v, seventh daily dose, fed
[7] = male, cynomolgus monkey, whole blood, iv, 7.02 mg/kg, whole blood, 84.2 mg/m^2 (7.02 mg/kg) iv single dose, DMSO:PEG300 15:85 v/v, fed
[8] = male, cynomolgus monkey, whole blood, po, 7.02 mg/kg, 84.2 mg/m^2 (7.02 mg/kg) oral gavage, Solutol, seventh daily dose, fed
[9] = male, cynomolgus monkey, whole blood, po, 7.02 mg/kg, whole blood, 84.2 mg/m^2 (7.02 mg/kg) oral gavage, PEG400:Labrasol 1:1 v/v, seventh daily dose, fed
[10] = male, cynomolgus monkey, whole blood, po, 28.06 mg/kg, whole blood, 336.7 mg/m^2 (28.06 mg/kg) oral gavage, PEG400:Labrasol 1:1 v/v, seventh daily dose, fed
[11] = male, cynomolgus, cynomolgus monkey, plasma, iv, 7.02 mg/kg, plasma, 84.2 mg/m^2 (7.02 mg/kg) i.v. single dose, DMSO:PEG300 15:85 v/v, fed
[12] = male, cynomolgus, cynomolgus monkey, plasma, po, 7.02 mg/kg, plasma, 84.2 mg/m^2 (7.02 mg/kg) oral gavage, PEG400:Labrasol 1:1 v/v, seventh daily dose, fed
[13] = plasma, 84.2 mg/m^2 (7.02 mg/kg) i.v. single dose, DMSO:PEG300 15:85 v/v, fed
[14] = whole blood, 84.2 mg/m^2 (7.02 mg/kg) iv single dose, DMSO:PEG300 15:85 v/v, fed

With `CCOC(=O)c1ccc2[nH]c3c(OC)c4[nH]c5ccc(C(=O)OCC)cc5c4cc3c2c1` [SR13668, 2,10-dicarbethoxy-6-methoxy-5,7-dihydro-indolo-(2,3-b)carbazole] the “effect of fourfold dose increase on oral bioavailability” value ([1]; PEG400:Labrasol, 84.2 vs 336.7 mg/m^2) was “about a fourfold decrease in the bioavailability; also recorded: lower oral bioavailability”, the CL ([1]; blood clearance, 84.2 mg/m^2 (7.02 mg/kg) oral gavage, PEG400:Labrasol 1:1 v/v, fed) was 121 mL/min/kg and the CL ([1]; blood clearance, 84.2 mg/m^2 (7.02 mg/kg) oral gavage, Solutol, fed) was 47.7 mL/min/kg. For the same molecule, the CL ([1]; blood clearance, 336.7 mg/m^2 (28.06 mg/kg) oral gavage, PEG400:Labrasol 1:1 v/v, fed) was 332 mL/min/kg, the “Fabs F/(1-ER)” value ([1]; 84.2 mg/m^2 (7.02 mg/kg) oral gavage, PEG400:Labrasol 1:1 v/v, fed) was 4.1% and the “Fabs F/(1-ER)” value ([1]; 84.2 mg/m^2 (7.02 mg/kg) oral gavage, Solutol, fed) was 9.1%. The “Fabs F/(1-ER)” value ([1]; 336.7 mg/m^2 (28.06 mg/kg) oral gavage, PEG400:Labrasol 1:1 v/v, fed) was 1.2%, the “ER CLiv/Q” value ([1]; iv blood clearance over hepatic blood flow 43.6 mL/min/kg) was 0.083 and the AUC(0-inf) [1, 3] was 13300 ± 4920 ng·h/mL. For the same molecule, the Cmax [1, 3] was 6090 ± 1080 ng/mL, the MRT [1, 3] was 6.9 ± 1.1 h and the AUC(0-inf) [1, 4] was 837 ± 144 ng·h/mL. For the same molecule, the Cmax [1, 4] was 71.4 ± 16 ng/mL, the MRT [1, 4] was 12.8 ± 2.1 h and the Tmax [1, 4] was 8 ± 3.3 h. For the same molecule, the AUC(0-inf) [1, 5] was 437 ± 312 ng·h/mL, the Cmax [1, 5] was 40.5 ± 38 ng/mL and the MRT [1, 5] was 11.6 ± 1.3 h. For the same molecule, the CL/F ([1]; male, cynomolgus monkey, plasma, po, 7.02 mg/kg, plasma, 84.2 mg/m^2 (7.02 mg/kg) oral gavage, PEG400:Labrasol 1:1 v/v, seventh daily dose, fed, read-out: CL/F (converted)) was 372 mL/min/kg, the Vd/F [1, 5] was 203 ± 130 L/kg and the CL/F ([1]; male, cynomolgus monkey, plasma, po, 7.02 mg/kg, plasma, 84.2 mg/m^2 (7.02 mg/kg) oral gavage, Solutol, seventh daily dose, fed, read-out: CL/F (converted)) was 143 mL/min/kg. For the same molecule, the Vd/F ([1]; male, cynomolgus monkey, plasma, po, 7.02 mg/kg, plasma, 84.2 mg/m^2 (7.02 mg/kg) oral gavage, Solutol, seventh daily dose, fed) was 90.5 ± 9.9 L/kg, the AUC(0-inf) [1, 6] was 367 ± 154 ng·h/mL and the Cmax [1, 6] was 43.7 ± 9.2 ng/mL. The MRT [1, 6] was 9.1 ± 2.4 h, the Tmax [1, 6] was 3.5 ± 1.9 h and the CL/F ([1]; male, cynomolgus monkey, plasma, po, 28.06 mg/kg, plasma, 336.7 mg/m^2 (28.06 mg/kg) oral gavage, PEG400:Labrasol 1:1 v/v, seventh daily dose, fed, read-out: CL/F (converted)) was 1440 mL/min/kg. For the same molecule, the Vd/F [1, 6] was 603 ± 236 L/kg, the AUC(0-inf) [1, 7] was 35400 ± 12400 ng·h/mL and the Cmax [1, 7] was 11100 ± 776 ng/mL. For the same molecule, the MRT [1, 7] was 9 ± 2.2 h, the Tmax [1, 7] was 0.25 h and the half-life [1, 7] was 8.6 ± 1.7 h. It also gave an AUC(0-inf) [1, 8] of 2490 ± 377 ng·h/mL, a Cmax [1, 8] of 227 ± 56 ng/mL and an MRT [1, 8] of 13.3 ± 1.1 h. It also gave a Tmax [1, 8] of 6.5 ± 3.8 h, a half-life [1, 8] of 7.7 ± 0.6 h and an AUC(0-inf) [1, 9] of 1560 ± 1330 ng·h/mL. It also gave a Cmax [1, 9] of 129 ± 140 ng/mL, an MRT [1, 9] of 11.5 ± 1.2 h and a Tmax [1, 9] of 7 ± 0.35 h. It also gave a half-life [1, 9] of 5.8 ± 0.9 h, a CL/F ([1]; male, cynomolgus monkey, whole blood, po, 7.02 mg/kg, whole blood, 84.2 mg/m^2 (7.02 mg/kg) oral gavage, PEG400:Labrasol 1:1 v/v, seventh daily dose, fed, read-out: CL/F (converted)) of 121 mL/min/kg and a Vd/F [1, 9] of 61.4 ± 44 L/kg. For the same molecule, the CL/F ([1]; male, cynomolgus monkey, whole blood, po, 7.02 mg/kg, whole blood, 84.2 mg/m^2 (7.02 mg/kg) oral gavage, Solutol, seventh daily dose, fed, read-out: CL/F (converted)) was 47.7 mL/min/kg, the Vd/F ([1]; male, cynomolgus monkey, whole blood, po, 7.02 mg/kg, whole blood, 84.2 mg/m^2 (7.02 mg/kg) oral gavage, Solutol, seventh daily dose, fed) was 31.6 ± 5 L/kg and the AUC(0-inf) [1, 10] was 1520 ± 445 ng·h/mL. The Cmax [1, 10] was 168 ± 35 ng/mL, the MRT [1, 10] was 10.9 ± 2.2 h and the Tmax [1, 10] was 3.5 ± 1.9 h. The half-life [1, 10] was 6.8 ± 1.2 h, the CL/F ([1]; male, cynomolgus monkey, whole blood, po, 28.06 mg/kg, whole blood, 336.7 mg/m^2 (28.06 mg/kg) oral gavage, PEG400:Labrasol 1:1 v/v, seventh daily dose, fed, read-out: CL/F (converted)) was 332 mL/min/kg and the Vd/F [1, 10] was 195 ± 73 L/kg. For the same molecule, the Tmax [1, 11] was 0.25 h, the half-life [1, 11] was 7.6 ± 0.8 h and the half-life ([1]; male, cynomolgus, cynomolgus monkey, plasma, po, 7.02 mg/kg, 84.2 mg/m^2 (7.02 mg/kg) oral gavage, Solutol, seventh daily dose, fed) was 7.4 ± 0.7 h. It also gave a Tmax [1, 12] of 5 ± 1.2 h, a half-life [1, 12] of 6 ± 1.3 h and a half-life ([1]; male, cynomolgus, cynomolgus monkey, plasma, po, 28.06 mg/kg, plasma, 336.7 mg/m^2 (28.06 mg/kg) oral gavage, PEG400:Labrasol 1:1 v/v, seventh daily dose, fed) of 5 ± 1.2 h. The clearance ([1]; male, cynomolgus, cynomolgus monkey, whole blood, blood clearance, 84.2 mg/m^2 (7.02 mg/kg) iv, DMSO:PEG300 15:85 v/v, fed) was 3.63 mL/min/kg, the CL/F [1, 13] was 0.580 ± 0.20^c,d L/hr/kg and the “F0-∞” value [1, 13] was 100%. For the same molecule, the “F0-∞” value ([1]; plasma, 84.2 mg/m^2 (7.02 mg/kg) oral gavage, PEG400:Labrasol 1:1 v/v, seventh daily dose, fed) was 3.3 ± 2.0^f %, the “F0-∞” value ([1]; plasma, 84.2 mg/m^2 (7.02 mg/kg) oral gavage, Solutol, seventh daily dose, fed) was 7.3 ± 2.9^i % and the “F0-∞” value ([1]; plasma, 336.7 mg/m^2 (28.06 mg/kg) oral gavage, PEG400:Labrasol 1:1 v/v, seventh daily dose, fed) was 0.72 ± 0.28^i %. The CL/F [1, 14] was 0.218 ± 0.078^c,d,h L/hr/kg, the “F0-∞” value [1, 14] was 100% and the “F0-∞” value ([1]; whole blood, 84.2 mg/m^2 (7.02 mg/kg) oral gavage, PEG400:Labrasol 1:1 v/v, seventh daily dose, fed) was 3.8 ± 3.1^e,h % and 3.8%. The “F0-∞” value ([1]; whole blood, 84.2 mg/m^2 (7.02 mg/kg) oral gavage, Solutol, seventh daily dose, fed) was 8.3 ± 3.1^e,h,i % and 8.3%, the “F0-∞” value ([1]; whole blood, 336.7 mg/m^2 (28.06 mg/kg) oral gavage, PEG400:Labrasol 1:1 v/v, seventh daily dose, fed) was 1.1 ± 0.44^h % and 1.1% and the “metabolism in rat microsomes” value [2] was “slow metabolism”.

From US20120184590A1, “FORMULATIONS OF INDOLE-3-CARBINOL DERIVED ANTITUMOR AGENTS WITH INCREASED ORAL BIOAVAILABILITY” (UNIVERSITY OF KANSAS, priority 2009, published 2012)
